Columns and labels:
ANGPTL3 Protein [1] = test: PHH free uptake, inhibition of ANGPTL3, ELISA of supernatant; assay type: cell-based; conditions: primary human hepatocytes, 72 hours
Protocol: PHH cells were thawed and adjusted to a density of 6×10^5 cells/mL. Then, 10 µL of the compound from the dilution plate was added to the cell culture plate, resulting in final compound concentrations of 100, 40, 12.5, 5, and 2 nM. The cells were seeded into a 96-well plate at a density of 54,000 cells per well (90 µL/well), with a final culture volume of 100 µL per well. The cells were cultured in a 5% CO2 incubator at 37°C for 72 hours.
(§1) The supernatant from the PHH and PCH cultures from the previous steps was collected, transferred to a new 96-well V-bottom plate, and centrifuged. Human Angiopoietin-like 3 protein (hANGPTL3 protein; DANL30) ELISA test was performed according to the instructions of HANGPTL 3 protein Kit.
(§2) Data Analysis: Four Parameter Logistic method. This method constructs a standard curve by plotting, with the y-axis as the average absorbance of the standards and the x-axis as the concentration, drawing a best-fit curve through the points on the graph. The OD value of the log concentration of the sample's HANGPTL3 protein is determined against the best-fit line of the log concentration by regression analysis. [formula]
(§3) Sequences with good activity in Table 8 were evaluated for in vitro inhibitory activity against ANGPTL3 Protein in primary human hepatocytes (PHH) and primary cynomolgus monkey hepatocytes (PCH). Table 10. In Vitro Inhibitory Activity of MCPP-siRNAs against ANGPTL3 mRNA in PHH Cell Line

ANGPTL3 Protein [2] = test: PCH free uptake, inhibition of ANGPTL3, ELISA of supernatant; assay type: cell-based; conditions: primary cynomolgus monkey hepatocytes, 72 hours
Protocol: PCH cells were resuscitated using 10% FBS InvitroGRO™ HT Medium, and subsequently, the cell density was adjusted to 3×10^5 cells/mL using 10% FBS InvitroGRO™ CP Medium. Then, 10 µL of the compound from the dilution plate was added to the cell culture plate, resulting in final compound concentrations of 25, 5, and 1 nM. The cells were seeded into a 96-well plate at a density of 27,000 cells per well (90 µL/well), with a final culture volume of 100 µL per well. The cells were cultured in a 5% CO2 incubator at 37 °C for 72 hours.
as §1, §2, §3

ANGPTL3 [3] = test: In vivo efficacy of ANGPTL3 GalNAc-siRNAs in hANGPTL3 humanized mice; conditions: 3 mg/kg subcutaneous on day 0; days 7, 14, 21, 28; normalized to day -1; compared to the control; Fig. 1
Protocol: To evaluate the in vivo efficacy of siRNA against ANGPTL3 in mice, female ANGPTL3 humanized mice (purchased from Shanghai Model Organisms Center, Inc.) were used for in vivo efficacy testing. Mice were randomly divided into 5 groups, with 5 mice per group: G1, Control (PBS) negative control group; G2, 2002-034-001 (3 mg/kg) treatment group; G3, 2008-010-001 (3 mg/kg) treatment group; G4, 2008-019-001 (3 mg/kg) treatment group; and G5, 2008-019-002 (3 mg/kg) treatment group.
On days -7 and -1, pre-dose plasma samples were obtained after a 4-hour fast. The above siRNA conjugates were diluted with saline and administered subcutaneously to the mice according to body weight on day 0. Plasma was collected after a 4-hour fast on days 7, 14, 21, and 28, respectively. The ANGPTL3 protein level in plasma was detected by ELISA (R&D Systems). Plasma triglycerides (TG), total cholesterol (CHO), high-density lipoprotein cholesterol (HDL-c), low-density lipoprotein cholesterol (LDL-c), alanine aminotransferase (ALT), and aspartate aminotransferase (AST) were tested by Shanghai Bikai Keyi Biotechnology Co., Ltd.
To evaluate the in vivo efficacy of the siRNAs against ANGPTL3 in mice, female ANGPTL3 humanized mice (purchased from Shanghai Model Organisms Center, Inc.) were used for the efficacy study. The mice were randomly allocated into five groups (n=5 per group) as follows: • G1: Control (PBS) negative control group; • G2: 2002-034-001 (3 mg/kg) treatment group; • G3: 2008-010-001 (3 mg/kg) treatment group; • G4: 2008-019-001 (3 mg/kg) treatment group; • G5: 2008-019-002 (3 mg/kg) treatment group.
The day of the first administration was designated as day 0. Accordingly, the day before administration was designated as day -1, and the day after administration as day 1.
On day -7, all mice were fasted for 4 hours, and mandibular blood was collected to obtain plasma for hANGPTL3 protein detection. […]
On day -1, pre-dose plasma samples were obtained after a 4-hour fast. […] The ANGPTL3 protein level in plasma was detected by ELISA (R&D Systems). […]

ANGPTL3 [4] = test: In vivo efficacy of ANGPTL3 GalNAc-siRNA in HFD-induced hyperlipidemic cynomolgus monkeys; conditions: single subcutaneous injection, normalized to pre-treatment, Fig. 2
Protocol: To evaluate the in vivo activity of siRNA against ANGPTL3, 6 HFD-induced hyperlipidemic cynomolgus monkeys were used for the experiment. Pre-dose serum samples were obtained after a 4-hour fast on days -7 and -14. The siRNA conjugate was diluted with saline and administered subcutaneously according to the experimental design on day 0. Blank saline was used as a negative control. Plasma was collected after a 4-hour fast on days 0, 7, 14, 28, 42, 49, and 56. Serum triglycerides were detected using an automatic biochemical analyzer.
The ANGPTL3 protein levels and triglyceride levels for each animal were normalized. For normalization, at a given time point, the ANGPTL3 protein and triglyceride levels of each animal were divided by the pre-treatment expression level of that animal (the average of the pre-experiment samples for that group) to determine the change in "normalization to pre-treatment".

Substance | IC50 (ANGPTL3 Protein [1]) [nM] | Average Inhibition in PCH % (ANGPTL3 Protein [2]; 1nM) [%] | Average Inhibition in PCH % (ANGPTL3 Protein [2]; 5nM) [%] | Average Inhibition in PCH % (ANGPTL3 Protein [2]; 25nM) [%] | level of ANGPTL3 protein in the plasma (ANGPTL3 [3]) | level of total cholesterol (CHO) in the plasma (ANGPTL3 [3]) | level of triglycerides (TG) in the plasma (ANGPTL3 [3]) | serum ANGPTL3 protein level (ANGPTL3 [4]) | triglyceride level (ANGPTL3 [4]; serum)
2002-034-002: GalNAc-conjugated modified ANGPTL3 siRNA, sense SEQ ID NO 33, antisense SEQ ID NO 13 (sense CAUAGUGAAGCAAUCUAAU; antisense AUUAGAUUGCUUCACUAUGGA; GalNAc conjugated, chemically modified, pattern not given here) [Duplex 2002-034-002] | 1.3 | 45.42 | 60.18 | 63.01 |  |  |  |  | 
2002-033-001: GalNAc-conjugated modified ANGPTL3 siRNA, sense SEQ ID NO 38, antisense SEQ ID NO 12 (sense CAUAGUGAAGCAAUCUAAU; antisense AUUAGAUUGCUUCACUAUGGA; GalNAc conjugated, chemically modified, pattern not given here) [Duplex 2002-033-001] | 1.08 | 53.11 | 67.45 | 68.80 |  |  |  |  | 
2008-011-002: GalNAc-conjugated modified ANGPTL3 siRNA, sense SEQ ID NO 35, antisense SEQ ID NO 28 (sense GAGAAGAACUACAUAUAAA; antisense UUUAUAUGUAGUUCUUCUCAG; GalNAc conjugated, chemically modified, pattern not given here) [Duplex 2008-011-002] | 0.75 | 54.65 | 71.25 | 76.57 |  |  |  |  | 
2008-035-001: GalNAc-conjugated modified ANGPTL3 siRNA, sense SEQ ID NO 42, antisense SEQ ID NO 28 (sense GAGAAGAACUACAUAUAAA; antisense UUUAUAUGUAGUUCUUCUCAG; GalNAc conjugated, chemically modified, pattern not given here) [Duplex 2008-035-001] | 2.34 | 46.03 | 63.23 | 68.96 |  |  |  |  | 
ARO-05488-003-NAG37: GalNAc-conjugated comparator ANGPTL3 siRNA, sense SEQ ID NO 44, antisense SEQ ID NO 45 (sense GCUCAACAUAUUUGAUCAGUA; antisense UACUGAUCAAAUAUGUUGAGC; GalNAc (NAG37) conjugate, chemistry not fully specified) [reference compound] | 7.19 | 28.48 | 49.83 | 60.00 |  |  |  |  | 
2008-010-001: GalNAc-conjugated modified ANGPTL3 siRNA, sense SEQ ID NO 40 (3'-YHZY12001), antisense SEQ ID NO 27 (sense GAGAAGAACUACAUAUAAA; antisense UUUAUAUGUAGUUCUUCUCAG; GalNAc conjugate YHZY12001 at sense 3', chemistry not fully specified) [Duplex 2008-010-001] | 0.81 | 62.75 | 74.73 | 78.39 | significantly reduced | significantly reduced | significantly reduced | significantly inhibited | significantly reduced
2002-034-001: GalNAc-conjugated modified ANGPTL3 siRNA, sense SEQ ID NO 38, antisense SEQ ID NO 13 (sense CAUAGUGAAGCAAUCUAAU; antisense AUUAGAUUGCUUCACUAUGGA; GalNAc conjugated, chemically modified, pattern not given here) [Duplex 2002-034-001] | 1.38 | 50.50 | 63.43 | 66.66 |  |  |  |  | 
2008-011-001: GalNAc-conjugated modified ANGPTL3 siRNA, sense SEQ ID NO 40, antisense SEQ ID NO 28 (sense GAGAAGAACUACAUAUAAA; antisense UUUAUAUGUAGUUCUUCUCAG; GalNAc conjugated, chemically modified, pattern not given here) [Duplex 2008-011-001] | 2.6 | 57.51 | 72.91 | 77.81 |  |  |  |  | 
2008-019-002: GalNAc-conjugated modified ANGPTL3 siRNA, sense SEQ ID NO 36, antisense SEQ ID NO 28 (sense GAGAAGAACUACAUAUAAA; antisense UUUAUAUGUAGUUCUUCUCAG; GalNAc conjugated, chemically modified, pattern not given here) [Duplex 2008-019-002] | 1.11 | 52.37 | 70.28 | 73.74 |  |  |  |  | 
